Measured values published in PubChem BioAssay (NCI).
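The compound was tested at five concentrations on cells cultured in 96-well plates, with a 48-hour exposure period. TGI: total growth inhibition.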

How the values were obtained:
Test in all cases: DTP human tumour cell line panel, 48 h
786-0 renal = test system: 786-0 renal
NCI-H23 lung = test system: NCI-H23 lung
TK-10 renal = test system: TK-10 renal
SNB-78 CNS = test system: SNB-78 CNS
CAKI-1 renal = test system: CAKI-1 renal
OVCAR-3 ovarian = test system: OVCAR-3 ovarian
HCT-116 colon = test system: HCT-116 colon
SK-MEL-5 melanoma = test system: SK-MEL-5 melanoma
UO-31 renal = test system: UO-31 renal
UACC-257 melanoma = test system: UACC-257 melanoma
HCC-2998 colon = test system: HCC-2998 colon
SF-268 CNS = test system: SF-268 CNS
M19-MEL melanoma = test system: M19-MEL melanoma
SN12C renal = test system: SN12C renal
A549 NSCLC = test system: A549 NSCLC
HOP-62 NSCLC = test system: HOP-62 NSCLC
HOP-92 NSCLC = test system: HOP-92 NSCLC
SW-620 colon = test system: SW-620 colon
SF-539 CNS = test system: SF-539 CNS
NCI-H460 lung = test system: NCI-H460 lung
SR leukemia = test system: SR leukemia
MOLT-4 leukemia = test system: MOLT-4 leukemia
SNB-75 CNS = test system: SNB-75 CNS
NCI-H522 lung = test system: NCI-H522 lung
MALME-3M melanoma = test system: MALME-3M melanoma
DMS 114 small cell lung = test system: DMS 114 small cell lung
SK-OV-3 ovarian = test system: SK-OV-3 ovarian
OVCAR-4 ovarian = test system: OVCAR-4 ovarian
NCI-H226 lung = test system: NCI-H226 lung
U251 CNS = test system: U251 CNS
HCT-15 colon = test system: HCT-15 colon
XF 498 CNS = test system: XF 498 CNS
ACHN renal = test system: ACHN renal
OVCAR-5 ovarian = test system: OVCAR-5 ovarian
CCRF-CEM leukemia = test system: CCRF-CEM leukemia
DMS 273 small cell lung = test system: DMS 273 small cell lung
KM12 colon = test system: KM12 colon
RPMI-8226 leukemia = test system: RPMI-8226 leukemia
M14 melanoma = test system: M14 melanoma
IGROV1 ovarian = test system: IGROV1 ovarian
UACC-62 melanoma = test system: UACC-62 melanoma
K-562 leukemia = test system: K-562 leukemia
OVCAR-8 ovarian = test system: OVCAR-8 ovarian
HT29 colon = test system: HT29 colon
LXFL 529 NSCLC = test system: LXFL 529 NSCLC
DLD-1 colon = test system: DLD-1 colon
SK-MEL-28 melanoma = test system: SK-MEL-28 melanoma
SK-MEL-2 melanoma = test system: SK-MEL-2 melanoma
LOX IMVI melanoma = test system: LOX IMVI melanoma
RXF 393 renal = test system: RXF 393 renal
A498 renal = test system: A498 renal
SF-295 CNS = test system: SF-295 CNS
HL-60(TB) leukemia = test system: HL-60(TB) leukemia
SNB-19 CNS = test system: SNB-19 CNS

c1ccc(OCc2nnc3n2N=C(c2ccccc2)CS3)cc1
TGI (786-0 renal): > 100 µM
TGI (NCI-H23 lung): > 100 µM
TGI (TK-10 renal): > 100 µM
TGI (SNB-78 CNS): > 100 µM
TGI (CAKI-1 renal): > 100 µM
TGI (OVCAR-3 ovarian): > 100 µM
TGI (HCT-116 colon): > 100 µM
TGI (SK-MEL-5 melanoma): > 100 µM
TGI (UO-31 renal): > 100 µM
TGI (UACC-257 melanoma): > 100 µM
TGI (HCC-2998 colon): > 100 µM
TGI (SF-268 CNS): > 100 µM
TGI (M19-MEL melanoma): > 100 µM
TGI (SN12C renal): > 100 µM
TGI (A549 NSCLC): > 100 µM
TGI (HOP-62 NSCLC): > 100 µM
TGI (HOP-92 NSCLC): > 100 µM
TGI (SW-620 colon): > 100 µM
TGI (SF-539 CNS): > 100 µM
TGI (NCI-H460 lung): > 100 µM
TGI (SR leukemia): > 100 µM
TGI (MOLT-4 leukemia): > 100 µM
TGI (SNB-75 CNS): 95.1 µM
TGI (NCI-H522 lung): > 100 µM
TGI (MALME-3M melanoma): > 100 µM
TGI (DMS 114 small cell lung): > 100 µM
TGI (SK-OV-3 ovarian): > 100 µM
TGI (OVCAR-4 ovarian): > 100 µM
TGI (NCI-H226 lung): > 100 µM
TGI (U251 CNS): > 100 µM
TGI (HCT-15 colon): > 100 µM
TGI (XF 498 CNS): > 100 µM
TGI (ACHN renal): > 100 µM
TGI (OVCAR-5 ovarian): > 100 µM
TGI (CCRF-CEM leukemia): > 100 µM
TGI (DMS 273 small cell lung): > 100 µM
TGI (KM12 colon): > 100 µM
TGI (RPMI-8226 leukemia): > 100 µM
TGI (M14 melanoma): > 100 µM
TGI (IGROV1 ovarian): > 100 µM
TGI (UACC-62 melanoma): > 100 µM
TGI (K-562 leukemia): > 100 µM
TGI (OVCAR-8 ovarian): > 100 µM
TGI (HT29 colon): > 100 µM
TGI (LXFL 529 NSCLC): > 100 µM
TGI (DLD-1 colon): > 100 µM
TGI (SK-MEL-28 melanoma): > 100 µM
TGI (SK-MEL-2 melanoma): > 100 µM
TGI (LOX IMVI melanoma): > 100 µM
TGI (RXF 393 renal): > 100 µM
TGI (A498 renal): > 100 µM
TGI (SF-295 CNS): > 100 µM
TGI (HL-60(TB) leukemia): > 100 µM
TGI (SNB-19 CNS): > 100 µM
